The values that follow are results of earlier work, collected in patent publication US12116550B2, “Process of making a liquid conditioning composition” (The Procter & Gamble Company, priority 2020, dated 2024).

The conditions of this data set: nonionic surfactants of Table A, value reported for the trade product.

For Sorbitan isostearate [Span 120], the “Reported HLB” value is recorded as 4.7. Consider Sorbitan monooleate [Span 80], for which the “Reported HLB” value is listed as 4.3. As for Sorbitan monopalmitate [Span 40], the “Reported HLB” value is reported as 6.7. Turning to Sorbitan monostearate [Span 60], the “Reported HLB” value was 4.7.
